By IC50 is commonly meant the concentration that inhibits the measured activity by half.

For this assay, the system named is IL-1β release from THP-1 cells. Description: IL-1β release assay. The assay is classed as cell-based. Conditions: Homo sapiens; PMA-treated THP-1 cells, 250 ng/mL LPS then 20 μM nigericin; cleaved IL-1β in media. As for the experimental part: Approximately 1.5 million THP-1 cells were plated in each well of a 6-well TC plate and incubated with 40 nM PMA in RPMI (10% FBS, 1% Penstrep) for 24 hours. The media was then removed and cells were rested in RPMI (10% FBS, 1% Penstrep) for 24 hours after which time the media was removed and cells were pre-treated for 2 hours with various concentrations of compounds of interest (typically serial 3-fold dilution in RPMI+5% FBS, concentrations ranging from 1 μM to 0.5 nM) in RPMI (5% FBS). The media was again removed and cells were incubated with 250 ng/mL LPS and compounds of interest (concentrations as above) in RMPI (5% FBS) for 2 hours. The media was removed for a last time and cells were incubated with 20 μM nigericin and compounds of interest (concentrations as above) in Opti-MEM for 30 minutes. Cell media was then collected and the amount of cleaved IL-1β was determined using a JESS instrument (Protein Simple) and standard protocols. Cleaved Il-1β antibody was obtained from Cell Signaling (catalogue #83186S) and was used at 1:20 dilution in antibody diluent 2. Protein Simple 1× anti-Rabbit HRP secondary antibody was used along with Protein Simple luminol and peroxide for chemiluminescent detection. Primary antibody incubation time was increased from 30 minutes to 60 minutes.

`O=C(Nc1ccc(Oc2ccnc3[nH]cc(Cl)c23)cc1F)Nc1cc(C2CC2)nn1-c1ccccc1` [Compound I-11, 1-(4-((3-chloro-1H-pyrrolo[2,3-b]pyridin-4-yl)oxy)-2-fluorophenyl)-3-(3-cyclopropyl-1-phenyl-1H-pyrazol-5-yl)urea] returned an IC50 greater than 1000 nM.

The record behind these values is patent US20240400551A1, “NEK7 INHIBITORS” (HALIA THERAPEUTICS, INC., priority 2021, published 2024).
